From ChEMBL document CHEMBL3351526, “Structure-based optimization of non-peptidic Cathepsin D inhibitors” (Bioorg Med Chem Lett, 2014)
Calls of active or inactive are those of the source. The rule behind the calls is not given here.

Columns and labels:
Cathepsin D [1] = biological target: T1, Cathepsin D (Homo sapiens, UniProt P07339); experiment: Inhibition of human liver cathepsin D using MCA-labeled GKPILFFRLK(Dnp)-D-R-NH2 peptide by fluorescence-based assay
Renin = biological target: T2, Renin (Homo sapiens, UniProt P00797); experiment: Inhibition of human recombinant renin using quenched Dabcyl-g-Abu-IHPFHLVIHT-Edans peptide substrate by fluorescence-based assay
T2 sequence (P00797 whole entry): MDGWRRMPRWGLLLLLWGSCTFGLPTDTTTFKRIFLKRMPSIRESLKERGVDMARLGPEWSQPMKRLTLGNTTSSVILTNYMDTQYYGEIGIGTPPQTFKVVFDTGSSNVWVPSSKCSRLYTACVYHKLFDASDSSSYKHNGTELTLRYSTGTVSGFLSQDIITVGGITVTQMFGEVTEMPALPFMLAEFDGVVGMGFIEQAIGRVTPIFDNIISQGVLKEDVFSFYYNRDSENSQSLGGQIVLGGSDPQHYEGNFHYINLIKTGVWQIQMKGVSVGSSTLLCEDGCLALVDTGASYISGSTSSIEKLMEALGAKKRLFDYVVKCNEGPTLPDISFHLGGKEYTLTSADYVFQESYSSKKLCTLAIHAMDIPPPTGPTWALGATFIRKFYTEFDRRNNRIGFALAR

[2] = Inhibition of pepsin (unknown origin); set-up: species or system Homo sapiens
Cathepsin D [3] = biological target: T3, Cathepsin D (Bos taurus, UniProt P80209); experiment: Inhibition of cathepsin D in bovine cartilage explants assessed as reduction in sulphated GAGs level after 3 days by spectrophotometric 1,9-dimethylmethylene blue shift assay based glycosaminoglycan release method
T3 sequence (P80209 whole entry): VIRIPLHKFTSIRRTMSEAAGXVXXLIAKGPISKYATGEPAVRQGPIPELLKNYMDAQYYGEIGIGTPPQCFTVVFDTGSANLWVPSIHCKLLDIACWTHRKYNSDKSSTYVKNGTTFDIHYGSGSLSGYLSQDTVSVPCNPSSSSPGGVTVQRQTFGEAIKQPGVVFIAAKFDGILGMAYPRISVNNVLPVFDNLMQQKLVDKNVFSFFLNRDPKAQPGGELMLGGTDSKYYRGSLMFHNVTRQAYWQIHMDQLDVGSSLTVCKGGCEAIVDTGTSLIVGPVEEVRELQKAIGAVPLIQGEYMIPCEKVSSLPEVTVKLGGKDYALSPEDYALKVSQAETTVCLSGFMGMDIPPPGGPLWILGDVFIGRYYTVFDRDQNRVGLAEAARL

[4] = Stability in human liver microsomes assessed as intrinsic clearance; type: ADME; details: read-out: CLH
[5] = Stability in rat liver microsomes assessed as intrinsic clearance; type: ADME; details: read-out: CLH
[6] = Apparent permeability across apical to basolateral side in human Caco2 cells; type: ADME, cell-based; details: Caco-2
[7] = Stability in mouse liver microsomes assessed as intrinsic clearance; type: ADME; details: read-out: CLH
Cathepsin D (Bos taurus) = biological target: T4, Cathepsin D (Bos taurus) (UniProt P80209); experiment: Inhibition of cathepsin D in bovine cartilage explants assessed as reduction in sulphated GAGs level at <1 uM after 3 days by spectrophotometric 1,9-dimethylmethylene blue shift assay based glycosaminoglycan release method
T4 sequence (whole entry): T3 sequence (P80209 whole entry)

Cathepsin D [8] = biological target: T1, Cathepsin D

T1 sequence (P07339 65-162 limits assumed): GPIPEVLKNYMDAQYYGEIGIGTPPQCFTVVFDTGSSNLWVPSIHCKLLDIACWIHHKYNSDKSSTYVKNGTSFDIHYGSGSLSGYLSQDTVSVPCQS
T1 sequence (P07339 169-412 limits assumed): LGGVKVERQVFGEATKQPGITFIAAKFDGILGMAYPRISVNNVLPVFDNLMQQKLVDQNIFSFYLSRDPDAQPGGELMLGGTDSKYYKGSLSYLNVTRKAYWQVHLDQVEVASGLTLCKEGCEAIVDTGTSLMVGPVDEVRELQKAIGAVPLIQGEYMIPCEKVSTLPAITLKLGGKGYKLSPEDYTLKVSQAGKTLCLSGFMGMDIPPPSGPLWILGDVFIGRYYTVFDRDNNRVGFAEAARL

Structure (SMILES)	IC50 (Cathepsin D [1]) [µM]	IC50 (Renin) [µM]	microsomal CLint [4] [µL/min/mg]	microsomal CLint [5] [µL/min/mg]	other results
COc1ccc(CCC(=O)NC(=N)NCc2ccccc2)cc1OC	25	20	–	–	–
CC(C)CC(=O)N[C@H](C(=O)N[C@H](C(=O)N[C@@H](CC(C)C)[C@@H](O)CC(=O)N[C@@H](C)C(=O)N[C@@H](CC(C)C)[C@@H](O)CC(=O)O)C(C)C)C(C)C [PEPSTATIN]	–	–	–	–	IC50 [2]: 0.1 nM
COc1cc(CNC(=O)[C@@H](CC2CCCCC2)NC(=N)NC(=O)Cc2ccc(OC)c(OC)c2)ccc1F	–	16	> 1000	241	IC50 (Cathepsin D [3]): 500 nM; Papp A→B [6]: 5 ×10⁻⁶ cm/s
COc1ccc(CC(=O)NC(=N)N[C@H](CC(C)C)C(=O)NCc2ccc(-c3nnn[nH]3)c(F)c2)cc1OC	–	–	54	< 10	–
COc1ccc(CNC(=O)[C@@H](CC(C)C)NC(=N)NC(=O)Cc2ccc(OC)c(OC)c2)cc1OC	–	–	262	143	–
COc1cc(Br)c(CC(=O)NC(=N)N[C@H](CC2CCCCC2)C(=O)NCc2cccc(-c3nnn[nH]3)c2)cc1OC	–	–	240	33	microsomal CLint [7]: 40 µL/min/mg
COc1cc(CCCC(=O)NC(=N)NCc2ccccc2)c([N+](=O)[O-])cc1OC	18	> 30	–	–	–
COc1ccc(CC(=O)NC(=N)N[C@H](CC2CCCCC2)C(=O)NCc2ccc(-c3nnn[nH]3)cc2)cc1OC	–	–	76	38	IC50 (Cathepsin D [3]): 1800 nM; microsomal CLint [7]: < 10 µL/min/mg; Papp A→B [6]: 0.25 ×10⁻⁶ cm/s
COc1cc(CC(=O)NC(=N)NCc2ccc(Cl)c(Cl)c2)c([N+](=O)[O-])cc1OC	0.44	> 30	–	–	inhibition (Cathepsin D (Bos taurus)): inactive
COc1ccc(CC(=O)NC(=N)NCc2ccc(C)cc2)cc1OC	1.9	> 30	–	–	inhibition (Cathepsin D (Bos taurus)): inactive
COc1cc(CC(=O)NC(=N)NCc2ccc(Cl)cc2)c([N+](=O)[O-])cc1OC	1.5	> 30	–	–	inhibition (Cathepsin D (Bos taurus)): inactive
COc1ccc(CC(=O)NC(=N)N[C@H](CC(C)C)C(=O)NCc2ccc(-c3nnn[nH]3)cc2)cc1OC	–	–	69	< 10	microsomal CLint [7]: < 10 µL/min/mg
COc1cc(Br)c(C(=O)N[C@@H](Cc2cccc(Oc3ccccc3)c2)[C@@H](O)CN(CCc2ccc(Cl)cc2Cl)C(=O)CCN2C(=O)c3ccccc3C2=O)cc1OC	–	–	–	–	inhibition (Cathepsin D (Bos taurus)): inactive; IC50 (Cathepsin D [8]): 85 nM
COc1cc(CNC(=O)[C@@H](CC(C)C)NC(=N)NC(=O)Cc2ccc(OC)c(OC)c2)ccc1F	–	8.7	966	148	IC50 (Cathepsin D [3]): 620 nM
COc1ccc(CNC(=N)NC(=O)Cc2cc(OC)c(OC)cc2[N+](=O)[O-])cc1OC	2.7	> 30	–	–	inhibition (Cathepsin D (Bos taurus)): inactive
COc1ccc(CC(=O)NC(=N)N[C@H](CC2CCCCC2)C(=O)NCc2ccc(F)c(F)c2)cc1OC	0.17	–	–	–	–
COc1ccc(CC(=O)NC(=N)NCc2ccc(N)cc2)cc1OC	29	> 30	–	–	–
COc1ccc(Cl)c(CC(=O)NC(=N)NCc2ccccc2)c1	6.1	> 30	–	–	–
COc1cc(CC(=O)NC(=N)NCc2ccccc2)c([N+](=O)[O-])cc1OC	10	> 30	–	–	–
COc1cc(CC(=O)NC(=N)NCc2ccccc2Cl)c([N+](=O)[O-])cc1OC	3	> 30	–	–	inhibition (Cathepsin D (Bos taurus)): inactive
COc1cc(Br)c(CC(=O)NC(=N)N[C@H](CC(C)C)C(=O)NCc2cccc(-c3nnn[nH]3)c2)cc1OC	–	–	107	17	microsomal CLint [7]: 38 µL/min/mg
COc1ccc(CNC(=O)[C@@H](CC2CCCCC2)NC(=N)NC(=O)Cc2ccc(OC)c(OC)c2)cc1F	–	13	–	–	–
COc1ccc(CNC(=O)[C@@H](Cc2ccccc2)NC(=N)NC(=O)Cc2ccc(OC)c(OC)c2)cc1OC	–	> 30	> 1000	384	IC50 (Cathepsin D [3]): 330 nM
COc1cc(CNC(=O)[C@@H](CC2CCCCC2)NC(=N)NC(=O)Cc2cc(OC)c(OC)cc2Br)ccc1F	–	> 30	> 1000	823	IC50 (Cathepsin D [3]): 900 nM
